Among the data in BindingDB's records for doi:10.1021/acsmedchemlett.6b00299 (University of Michigan, 2016) are IC50 values, retold here.

As usually defined, the IC50 is the concentration needed to halve the response being measured.

A short description of the test: Inhibition of human serum factor D-mediated complement activation in rabbit erythrocytes assessed as reduction in rabbit erythrocyte hemolysis preincubated with human serum for 15 mins followed by addition of rabbit erythrocytes and Mg-EGTA measured after 30 mins.

Each structure is given as a SMILES string.

With `NC(=O)c1nn(CC(=O)N2CCS[C@H]2C(=O)Nc2cccc(Br)n2)c2ncccc12`, the IC50 came to 205 nM.

Consider `NC(=O)c1nn(CC(=O)N2[C@@H]3C[C@@H]3C[C@H]2C(=O)Nc2cccc(Br)n2)c2ncccc12`, for which the IC50 was 47 nM.
